Data taken from patent US20190290759A1, “COMBINATION OF HDAC INHIBITOR AND ANTI-PD-L1 ANTIBODY FOR TREATMENT OF OVARIAN CANCER” (Syndax Pharmaceuticals, Inc., priority 2015, published 2019).

Columns and labels:
[1] = system: PD-L1 in lung and prostate carcinoma xenografts (NCI-H460, PC-3, DU 145); test: Human xenografts, PD-L1 immunofluorescence; format: in vivo, nu/nu mice; details: vorinostat 150 mg/kg p.o. 4 daily doses, excised 24 h after last dose; entinostat 20 mg/kg p.o. single dose 72 h before excision; vs DMSO
Description: Female nu/nu mice were implanted with NCI-H460 (lung) or PC-3 (prostate) carcinoma cells. […] Frozen specimens were examined for cell-surface expression of PD-L1 by immunofluorescence using antihuman PD-L1 (clone SP142) and goat anti-rabbit AF594, and counterstained with DAPI-containing mounting medium.
Tumors were excised 24 h after the last dose. […] Frozen sections were examined for cell-surface expression of human PD-L1 by immunofluorescence. Confocal images are shown at 20× magnification and are representative of 3 animals/treatment. Relative PD-L1 expression levels were calculated using ImageJ software by normalizing the intensity values to their respective DMSO treated controls.

[2] = system: PD-L1 on NCI-H460 carcinoma cells; test: Cell-surface PD-L1 expression by flow cytometry, NCI-H460; format: cell-based, human; details: NCI-H460 (lung), vorinostat 3 μM 5 h daily x4 days or entinostat 500 nM 72 h; for PD-L1 % Positive: DMSO controls 68.0 / 89.5; for PD-L1 MFI: DMSO controls 199 / 492
[3] = system: MICA/B on DU 145 carcinoma cells; test: Cell-surface MIC-A/B expression by flow cytometry, DU 145; format: cell-based, human; details: DU 145 (prostate); vorinostat 3 μM 5 h daily x4 days or entinostat 500 nM 72 h; DMSO controls 42.9 / 58.9
[4] = in vitro; details: human, PC-3 prostate carcinoma cells
[5] = system: PD-L1 on AsPC-1 carcinoma cells; test: Cell-surface PD-L1 expression by flow cytometry, AsPC-1; format: cell-based, human; details: AsPC-1 (pancreas), vorinostat 3 μM 5 h daily x4 days or entinostat 500 nM 72 h; for PD-L1 % Positive: DMSO controls 1.4 / 1.9; for PD-L1 MFI: DMSO controls 87.5 / 91.4
[6] = system: HLA-ABC on DU 145 carcinoma cells; test: Cell-surface HLA-ABC expression by flow cytometry, DU 145; format: cell-based, human; details: DU 145 (prostate), vorinostat 3 μM 5 h daily x4 days or entinostat 500 nM 72 h; for HLA-ABC % Positive: DMSO controls 100 / 100; for HLA-ABC MFI: DMSO controls 200 / 226
[7] = system: MICA/B on PC-3 carcinoma cells; test: Cell-surface MIC-A/B expression by flow cytometry, PC-3; format: cell-based, human; details: PC-3 (prostate); vorinostat 3 μM 5 h daily x4 days or entinostat 500 nM 72 h; DMSO controls 33.2 / 43.7
[8] = system: MICA/B on AsPC-1 carcinoma cells; test: Cell-surface MIC-A/B expression by flow cytometry, AsPC-1; format: cell-based, human; details: AsPC-1 (pancreas); vorinostat 3 μM 5 h daily x4 days or entinostat 500 nM 72 h; DMSO controls 1.9 / 1.4
[9] = system: MICA/B on NCI-H460 carcinoma cells; test: Cell-surface MIC-A/B expression by flow cytometry, NCI-H460; format: cell-based, human; details: NCI-H460 (lung); vorinostat 3 μM 5 h daily x4 days or entinostat 500 nM 72 h; DMSO controls 4.4 / 20.3
[10] = system: PD-L1 on PC-3 carcinoma cells; test: Cell-surface PD-L1 expression by flow cytometry, PC-3; format: cell-based, human; details: PC-3 (prostate), vorinostat 3 μM 5 h daily x4 days or entinostat 500 nM 72 h; for PD-L1 % Positive: DMSO controls 74.1 / 55.8; for PD-L1 MFI: DMSO controls 207 / 146
[11] = system: HLA-ABC on AsPC-1 carcinoma cells; test: Cell-surface HLA-ABC expression by flow cytometry, AsPC-1; format: cell-based, human; details: AsPC-1 (pancreas), vorinostat 3 μM 5 h daily x4 days or entinostat 500 nM 72 h; for HLA-ABC % Positive: DMSO controls 98.5 / 99.1; for HLA-ABC MFI: DMSO controls 625 / 670
[12] = system: PD-L1 on NCI-H441 carcinoma cells; test: Cell-surface PD-L1 expression by flow cytometry, NCI-H441; details: NCI-H441 (lung); vorinostat 3 μM 5 h daily x4 days or entinostat 500 nM 72 h; DMSO controls 958 / 1031
[13] = system: MICA/B on NCI-H441 carcinoma cells; test: Cell-surface MIC-A/B expression by flow cytometry, NCI-H441; format: cell-based, human; details: NCI-H441 (lung); vorinostat 3 μM 5 h daily x4 days or entinostat 500 nM 72 h; DMSO controls 23.5 / 16.7
[14] = system: PD-L1 on DU 145 carcinoma cells; test: Cell-surface PD-L1 expression by flow cytometry, DU 145; format: cell-based, human; details: DU 145 (prostate), vorinostat 3 μM 5 h daily x4 days or entinostat 500 nM 72 h; for PD-L1 % Positive: DMSO controls 76.3 / 81.4; for PD-L1 MFI: DMSO controls 200 / 226
[15] = system: HLA-ABC on PC-3 carcinoma cells; test: Cell-surface HLA-ABC expression by flow cytometry, PC-3; format: cell-based, human; details: PC-3 (prostate), vorinostat 3 μM 5 h daily x4 days or entinostat 500 nM 72 h; for HLA-ABC % Positive: DMSO controls 99.8 / 99.9; for HLA-ABC MFI: DMSO controls 699 / 801
[16] = system: HLA-ABC on NCI-H441 carcinoma cells; test: Cell-surface HLA-ABC expression by flow cytometry, NCI-H441; format: cell-based, human; details: NCI-H441 (lung), vorinostat 3 μM 5 h daily x4 days or entinostat 500 nM 72 h; for HLA-ABC % Positive: DMSO controls 99.9 / 99.9; for HLA-ABC MFI: DMSO controls 1182 / 1232
[17] = system: HLA-ABC on NCI-H460 carcinoma cells; test: Cell-surface HLA-ABC expression by flow cytometry, NCI-H460; format: cell-based, human; details: NCI-H460 (lung), vorinostat 3 μM 5 h daily x4 days or entinostat 500 nM 72 h; for HLA-ABC % Positive: DMSO controls 86.6 / 99.2; for HLA-ABC MFI: DMSO controls 371 / 822
[18] = system: histone acetylation; details: following the administration of entinostat; cited from earlier work
[19] = system: human lung and prostate carcinoma cells (DU 145, PC-3, NCI-H460, NCI-H441); test: Avelumab-mediated ADCC, 4 h 111In release assay with NK effectors; format: cell-based; details: cells pre-exposed to vorinostat 3 μM (5 h daily x4 days) or entinostat 500 nM (72 h) vs DMSO; avelumab 2 ng/mL; NK effectors E:T=30:1
Description: (§1) NK lysis was performed in the presence of avelumab or isotype control (2 ng/mL).
(§2) Results are presented as mean±S.E.M. from 3 replicate wells, and are representative of 2-4 independent experiments. […] For CD16 blocking, NK cells were pretreated for 2 h with anti-CD16 blocking antibody prior to being used as effectors. Results are presented as mean±S.E.M. from 3 replicate wells, and are representative of 2-4 independent experiments.

[20] = in vivo; cited from earlier work
[21] = system: host immune suppressor cells; details: preclinical models; cited from earlier work
[22] = system: NCI-H460 lung carcinoma cells; test: Avelumab-mediated NK lysis with CD16 blocking; format: cell-based, human; details: NK cells pretreated 2 h with anti-CD16 blocking antibody 12 μg/mL; targets exposed to vorinostat or DMSO; avelumab 2 ng/mL
Description: as §1
NK cells were pretreated for 2 h with anti-CD16 blocking antibody (12 μg/mL) prior to being used as effectors.
as §2

[23] = system: human carcinoma cell lines; details: cited from earlier work
[24] = system: whole PBMCs or dendritic cells isolated from PBMCs; details: cited from earlier work

Row | Compound | PD-L1 expression in vivo in xenografts (immunofluorescence) [1] | PD-L1 % Positive [2] [%] | PD-L1 MFI [2] | MIC-A/B % Positive [3] [%] | PD-L1 % Positive [5] [%] | PD-L1 MFI [5] | HLA-ABC % Positive [6] [%] | HLA-ABC MFI [6] | MIC-A/B % Positive [7] [%] | MIC-A/B % Positive [8] [%] | MIC-A/B % Positive [9] [%] | PD-L1 % Positive [10] [%] | PD-L1 MFI [10] | HLA-ABC % Positive [11] [%] | HLA-ABC MFI [11] | PD-L1 MFI [12] | MIC-A/B % Positive [13] [%] | PD-L1 % Positive [14] [%] | PD-L1 MFI [14] | HLA-ABC % Positive [15] [%] | also measured
1 | O=C(CCCCCCC(=O)Nc1ccccc1)NO [Vorinostat] | enhance PD-L1 expression | 86.9 | 278 | 93.9 | 1.4 | 90.4 | 100 | 354 | 58.1 | 0.8 | 70.6 | 83.3 | 251 | 99.2 | 806 | 1053 | 21.1 | 96.0 | 354 | 99.7 | viability [4]: 99%; HLA-ABC MFI [15]: 816; HLA-ABC % Positive [16]: 99.9%; HLA-ABC MFI [16]: 1284; HLA-ABC % Positive [17]: 97.1%; HLA-ABC MFI [17]: 608
2 | Nc1ccccc1NC(=O)c1ccc(CNC(=O)OCc2cccnc2)cc1 [Entinostat, N-(2-aminophenyl)-4-[N-(pyridine-3-yl)methoxycarbonylamino-methyl]-benzamide] | enhance PD-L1 expression | 90.2 | 507 | 94.3 | 9.9 | 126 | 100 | 705 | 91.5 | 6.5 | 69.8 | 86.4 | 240 | 99.0 | 126 | 1027 | 46.2 | 99.5 | 705 | 100 | persistence of changes in histone acetylation [18]: persist for several weeks; Sensitivity of carcinoma cells to ADCC mediated by avelumab (NK-cell lysis) [19]: significantly increased sensitivity; half-life [20]: about 100 hours; HLA-ABC MFI [15]: 1144; effect on host immune suppressor cells [21]: reduce the number of, and inhibit the function of, host immune suppressor cells; HLA-ABC % Positive [16]: 99.9%; HLA-ABC MFI [16]: 1375; HLA-ABC % Positive [17]: 94.3%; HLA-ABC MFI [17]: 547
3 | avelumab: fully human anti-PD-L1 IgG1 antibody |  |  |  |  |  |  |  |  |  |  |  |  |  |  |  |  |  |  |  |  | Avelumab-mediated lysis of carcinoma cells after CD16 neutralization [22]: decreased by CD16 neutralization; human carcinoma cell lines in which ADCC was induced ([23]; PBMCs as effectors): 8 out of 18; cell lines with augmented lysis after IFN-γ pretreatment ([23]; tumor cell lines pretreated with IFN-γ): 4 out of 10; lysis of PBMCs or dendritic cells in NK-mediated ADCC assays [24]: Little or no lysis
